Experimental data published in patent publication US5527773A, “Use of synthetic peptides to disrupt the cytoskeleton” (United States of America, priority 1993, dated 1996).

Experiments:
[1] = Solubility of the peptide; assay type: physicochemical
Description: (§1) Microinjected cells were prepared for indirect immunofluorescence and confocal microscopy as described (Yang et al., (1985) J. Cell Biol., 100: 620-631). IF disassembly was assessed by immunofluorescence using antibodies against IFs. […] At 1 mg/ml peptide, cells rounded up completely within 30 min, respreading and regaining their shape after a few hours. […] The rounded-up cells contained spots of fluorescence indicating a rather complete disruption of IF structure. Recovery occurred within 3-4 hours indicating a need to maintain a constant supply of peptide to maintain the disassembled state of the IF network. The 1A peptide was soluble at 5-10 mg/ml, although higher concentrations may also be obtainable.

[2] = system: keratin and vimentin/desmin IF networks in PtK2, BHK21 and mouse 3T3 fibroblasts; experiment: Microinjection of the 1A peptide into cells, indirect immunofluorescence and confocal microscopy; assay type: cell-based, kangaroo rat, baby hamster
Description: The synthetic peptide corresponding to the keratin 1 chain 1A region (SEQ ID NO: 2) was microinjected into PtK2, BHK21 and mouse 3T3 fibroblasts according to the procedure of Vikstrom et al. (Proc. Natl. Acad. Sci. U.S.A., (1989) 86: 549-553; Methods Enzymol., (1991) 176: 506-525). BHK-21 cells contain type III filaments composed of vimentin and desmin, while 3T3 cells contain only vimentin. PtK2 cells contain mainly keratin. Briefly, peptides in 20 mM Tris-HCl. pH 8.5, 0.17M NaCl, 3 mM KCl were clarified by centrifugation for 30 min at 100,000×g immediately prior to microinjection. Protein concentrations in samples were determined by the method of Bradford (Anal. Biochem., 72: 248-254 (1976)). Micropipettes (W-P instruments) were prepared on a micropipette puller (Industrial Science Associates). Microinjections were monitored with a Leitz Diavert phase-contrast microscope fitted with a Leitz micromanipulator according to standard techniques (Graessmann and Graessmann, (1976) Proc. Natl. Acad. Sci. U.S.A., 73: 366-370; Kreis and Birchmeier, (1982) Int. Rev. Cytol., 75: 209-227).
as §1

preformed keratin IFs = experiment: Disassembly of preformed keratin IFs by synthetic peptides (light scattering, electron microscopy); assay type: biochemical, human
Description: In vitro filament assembly assays (1-1.5 mg/ml) were performed by dialysis for 2 hours each into decreasing concentrations of urea (6, 4, 2, 1 and 0M) containing 5 mM Tris-HCl, pH 7.6, 1 mM EDTA, 1 mM dithiothreitol. […]. Light scattering was measured at 310 nm in a Beckman DU65 spectrophotometer. Synthetic peptides (1-30 μl of a 0.5-2 mg/ml solution) were added to 1 ml samples of keratin filaments, incubated at 37° C., and filament assembly was measured by light scattering. […] Samples of these reactions were also collected for visualization by electron microscopy and stopped by negative staining with freshly-prepared 0.7% uranyl acetate.
Peptides corresponding to the H1, beginning of 1A, and full-length 1A regions (SEQ ID NO: 1-3) of the human keratin 1 chain were individually mixed with preformed keratin IFs in vitro at a 1:1 molar ratio.

## 1A*: the first 18 amino acids of SEQ ID NO: 2 (1A peptide) (REQIKSLNNQFASFIDKV)
[1]
  solubility: 5 to 10 mg/mL
[2]; 1 mg/ml peptide
  IF structure by immunofluorescence during rounding: disorganized arrays of IFs
  time to complete rounding up of cells: ≤ 30 min
[2]; 2-5 mg/ml peptide
  alteration of IF networks: very significant alterations in both the keratin and vimentin/desmin IF networks
  time to recovery: 3 to 4 h
[2]; about 0.5 mg/ml peptide microinjected, after 15-20 min
  overall cell shape: altered slightly due to the partial rounding up
[2]; about 0.5 mg/ml peptide, 30 min post-injection
  overall IF structure by immunofluorescence: no significant changes in overall IF structure
Preformed keratin IFs; 1:1 molar ratio
  reversibility of disassembly: reversible upon removal of the peptide
Preformed keratin IFs; 1:1 molar ratio peptide to preformed keratin IFs, light scattering and electron microscopy
  time to disassembly of preformed IFs down to single coiled-coil molecules: ≤ 30 min
